Measured values from US20240409585A1, “MACROCYCLIC IMMUNOMODULATORS” (priority 2021, published 2024).
Bridge positions count the residues as written; N and C are the ends. Square brackets hold non-standard residues; d marks the D form. Peptide text beside a SMILES is read from it. Bip = N[C@@H](Cc1ccc(-c2ccccc2)cc1)C(=O)O; Phe(3-CN) = N#Cc1cccc(C[C@H](N)C(=O)O)c1; Phe(3-Cl) = N[C@@H](Cc1cccc(Cl)c1)C(=O)O; Phe(3-OMe) = COc1cccc(C[C@H](N)C(=O)O)c1; Phe(4-CN) = N#Cc1ccc(C[C@H](N)C(=O)O)cc1; Phe(3-F) = N[C@@H](Cc1cccc(F)c1)C(=O)O; Phe(3-Me) = Cc1cccc(C[C@H](N)C(=O)O)c1; Cha = N[C@@H](CC1CCCCC1)C(=O)O; Cit = NC(=O)NCCC[C@H](N)C(=O)O; NMeA = CN[C@@H](C)C(=O)O; Dab = NCC[C@H](N)C(=O)O

The molecules below were run against T1, PE-labeled human PD-L1-Ig binding to Jurkat cell line over-expressing human PD-1 (Jurkat-PD-1) (Homo sapiens, UniProt Q15116) (assay: Jurkat-PD-1 Cell Binding High-Content Screening Assay (CBA): Method 1). Details: Jurkat-hPD-1 cells, PE-labeled PD-L1-Ig 20 nM final; read-out: Jurkat HPDL1 PD1 IC50 (uM) (Method 1).
T1 construct: expressed in transfected cells; host or cells: Jurkat
T1 sequence (Q15116 25-288): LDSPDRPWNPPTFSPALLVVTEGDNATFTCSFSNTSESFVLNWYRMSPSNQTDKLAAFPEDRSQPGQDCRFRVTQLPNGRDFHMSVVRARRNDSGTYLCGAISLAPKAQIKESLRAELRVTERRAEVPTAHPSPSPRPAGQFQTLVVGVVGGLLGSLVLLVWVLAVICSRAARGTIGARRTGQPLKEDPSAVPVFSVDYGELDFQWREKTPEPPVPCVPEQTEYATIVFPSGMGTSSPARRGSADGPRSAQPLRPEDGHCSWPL

SMILES | IC50 [µM]
CC(C)C[C@H]1NC(=O)[C@H](C)N(C)C(=O)[C@H](CCCNC(N)=O)NC(=O)[C@H](Cc2ccc(-c3ccccc3)cc2)NC(=O)[C@H](C(C)C)NC(=O)[C@H](Cc2c[nH]c3ccccc23)NC(=O)[C@H](CC(=O)O)NC(=O)[C@H](Cc2ccc(O)cc2)NC(=O)[C@H](CC(N)=O)NC(=O)CSC[C@@H](C(=O)N[C@@H](C)C(N)=O)NC(=O)[C@H]([C@@H](C)O)NC(=O)[C@H](C(C)C)NC(=O)[C@H](CC2CCCCC2)NC(=O)[C@H](CCCNC(=N)N)NC1=O [Compound 1304] ({CH2CO}-NYDWV[Bip][Cit][NMeA][dL]R[Cha]VTCA-NH2; thioether N-14) | 0.02
Cc1cccc(C[C@@H]2NC(=O)[C@H](CC(N)=O)NC(=O)CSC[C@@H](C(=O)N[C@@H](C)C(N)=O)NC(=O)[C@H]([C@@H](C)O)NC(=O)[C@H](C(C)C)NC(=O)[C@H](CC(C)C)NC(=O)[C@H](CCN)NC(=O)[C@@H](CC(C)C)NC(=O)[C@H](C)N(C)C(=O)[C@H](CCCNC(=N)N)NC(=O)[C@H](Cc3ccc(-c4ccccc4)cc3)NC(=O)[C@H](C(C)C)NC(=O)[C@H](Cc3c[nH]c4ccccc34)NC(=O)[C@H](CC(=O)O)NC2=O)c1 [Compound 1305] ({CH2CO}-N[Phe(3-Me)]DWV[Bip]R[NMeA][dL][Dab]LVTCA-NH2; thioether N-14) | 0.2
COc1cccc(C[C@@H]2NC(=O)[C@H](CC(N)=O)NC(=O)CSC[C@@H](C(=O)N[C@@H](C)C(N)=O)NC(=O)[C@H]([C@@H](C)O)NC(=O)[C@H](C(C)C)NC(=O)[C@H](CC(C)C)NC(=O)[C@H](CCN)NC(=O)[C@@H](CC(C)C)NC(=O)[C@H](C)N(C)C(=O)[C@H](CCCNC(=N)N)NC(=O)[C@H](Cc3ccc(-c4ccccc4)cc3)NC(=O)[C@H](C(C)C)NC(=O)[C@H](Cc3c[nH]c4ccccc34)NC(=O)[C@H](CC(=O)O)NC2=O)c1 [Compound 1307] ({CH2CO}-N[Phe(3-OMe)]DWV[Bip]R[NMeA][dL][Dab]LVTCA-NH2; thioether N-14) | 0.1
CC(C)C[C@@H]1NC(=O)[C@H](CCN)NC(=O)[C@@H](CC(C)C)NC(=O)[C@H](C)N(C)C(=O)[C@H](CCCNC(=N)N)NC(=O)[C@H](Cc2ccc(-c3ccccc3)cc2)NC(=O)[C@H](C(C)C)NC(=O)[C@H](Cc2c[nH]c3ccccc23)NC(=O)[C@H](CC(=O)O)NC(=O)[C@H](Cc2cccc(C#N)c2)NC(=O)[C@H](CC(N)=O)NC(=O)CSC[C@@H](C(=O)N[C@@H](C)C(N)=O)NC(=O)[C@H]([C@@H](C)O)NC(=O)[C@H](C(C)C)NC1=O [Compound 1308] ({CH2CO}-N[Phe(3-CN)]DWV[Bip]R[NMeA][dL][Dab]LVTCA-NH2; thioether N-14) | 0.11
CC(C)C[C@@H]1NC(=O)[C@H](CCN)NC(=O)[C@@H](CC(C)C)NC(=O)[C@H](C)N(C)C(=O)[C@H](CCCNC(=N)N)NC(=O)[C@H](Cc2ccc(-c3ccccc3)cc2)NC(=O)[C@H](C(C)C)NC(=O)[C@H](Cc2c[nH]c3ccccc23)NC(=O)[C@H](CC(=O)O)NC(=O)[C@H](Cc2cccc(F)c2)NC(=O)[C@H](CC(N)=O)NC(=O)CSC[C@@H](C(=O)N[C@@H](C)C(N)=O)NC(=O)[C@H]([C@@H](C)O)NC(=O)[C@H](C(C)C)NC1=O [Compound 1309] ({CH2CO}-N[Phe(3-F)]DWV[Bip]R[NMeA][dL][Dab]LVTCA-NH2; thioether N-14) | 0.09
CC(C)C[C@@H]1NC(=O)[C@H](CCN)NC(=O)[C@@H](CC(C)C)NC(=O)[C@H](C)N(C)C(=O)[C@H](CCCNC(N)=O)NC(=O)[C@H](Cc2ccc(-c3ccccc3)cc2)NC(=O)[C@H](C(C)C)NC(=O)[C@H](Cc2c[nH]c3ccccc23)NC(=O)[C@H](CC(=O)O)NC(=O)[C@H](Cc2cccc(Cl)c2)NC(=O)[C@H](CC(N)=O)NC(=O)CSC[C@@H](C(=O)N[C@@H](C)C(N)=O)NC(=O)[C@H]([C@@H](C)O)NC(=O)[C@H](C(C)C)NC1=O [Compound 1310] ({CH2CO}-N[Phe(3-Cl)]DWV[Bip][Cit][NMeA][dL][Dab]LVTCA-NH2; thioether N-14) | 0.11
COc1cccc(C[C@@H]2NC(=O)[C@H](CC(N)=O)NC(=O)CSC[C@@H](C(=O)N[C@@H](C)C(N)=O)NC(=O)[C@H]([C@@H](C)O)NC(=O)[C@H](C(C)C)NC(=O)[C@H](CC(C)C)NC(=O)[C@H](CCN)NC(=O)[C@@H](CC(C)C)NC(=O)[C@H](C)N(C)C(=O)[C@H](CCCNC(N)=O)NC(=O)[C@H](Cc3ccc(-c4ccccc4)cc3)NC(=O)[C@H](C(C)C)NC(=O)[C@H](Cc3c[nH]c4ccccc34)NC(=O)[C@H](CC(=O)O)NC2=O)c1 [Compound 1313] ({CH2CO}-N[Phe(3-OMe)]DWV[Bip][Cit][NMeA][dL][Dab]LVTCA-NH2; thioether N-14) | 0.04
CC(C)C[C@@H]1NC(=O)[C@H](CCN)NC(=O)[C@@H](CC(C)C)NC(=O)[C@H](C)N(C)C(=O)[C@H](CCCNC(N)=O)NC(=O)[C@H](Cc2ccc(-c3ccccc3)cc2)NC(=O)[C@H](C(C)C)NC(=O)[C@H](Cc2c[nH]c3ccccc23)NC(=O)[C@H](CC(=O)O)NC(=O)[C@H](Cc2cccc(C#N)c2)NC(=O)[C@H](CC(N)=O)NC(=O)CSC[C@@H](C(=O)N[C@@H](C)C(N)=O)NC(=O)[C@H]([C@@H](C)O)NC(=O)[C@H](C(C)C)NC1=O [Compound 1314] ({CH2CO}-N[Phe(3-CN)]DWV[Bip][Cit][NMeA][dL][Dab]LVTCA-NH2; thioether N-14) | 0.04

Continued, values first:

IC50 [µM] | SMILES
0.02 | CC(C)C[C@@H]1NC(=O)[C@H](CCN)NC(=O)[C@@H](CC(C)C)NC(=O)[C@H](C)N(C)C(=O)[C@H]([C@@H](C)O)NC(=O)[C@H](Cc2ccc(-c3ccccc3)cc2)NC(=O)[C@H](C(C)C)NC(=O)[C@H](Cc2c[nH]c3ccccc23)NC(=O)[C@H](CC(=O)O)NC(=O)[C@H](Cc2ccc(O)cc2)NC(=O)[C@H](CC(N)=O)NC(=O)CSC[C@@H](C(=O)N[C@@H](C)C(N)=O)NC(=O)[C@H]([C@@H](C)O)NC(=O)[C@H](C(C)C)NC1=O [Compound 1300] ({CH2CO}-NYDWV[Bip]T[NMeA][dL][Dab]LVTCA-NH2; thioether N-14)
0.06 | CC(C)C[C@@H]1NC(=O)[C@H](CCN)NC(=O)[C@@H](CC(C)C)NC(=O)[C@H](C)N(C)C(=O)[C@H](CCC(N)=O)NC(=O)[C@H](Cc2ccc(-c3ccccc3)cc2)NC(=O)[C@H](C(C)C)NC(=O)[C@H](Cc2c[nH]c3ccccc23)NC(=O)[C@H](CC(=O)O)NC(=O)[C@H](Cc2ccc(O)cc2)NC(=O)[C@H](CC(N)=O)NC(=O)CSC[C@@H](C(=O)N[C@@H](C)C(N)=O)NC(=O)[C@H]([C@@H](C)O)NC(=O)[C@H](C(C)C)NC1=O [Compound 1301] ({CH2CO}-NYDWV[Bip]Q[NMeA][dL][Dab]LVTCA-NH2; thioether N-14)
0.02 | CC(C)C[C@@H]1NC(=O)[C@H](CCN)NC(=O)[C@@H](CC(C)C)NC(=O)[C@H](C)N(C)C(=O)[C@H](Cc2cnc[nH]2)NC(=O)[C@H](Cc2ccc(-c3ccccc3)cc2)NC(=O)[C@H](C(C)C)NC(=O)[C@H](Cc2c[nH]c3ccccc23)NC(=O)[C@H](CC(=O)O)NC(=O)[C@H](Cc2ccc(O)cc2)NC(=O)[C@H](CC(N)=O)NC(=O)CSC[C@@H](C(=O)N[C@@H](C)C(N)=O)NC(=O)[C@H]([C@@H](C)O)NC(=O)[C@H](C(C)C)NC1=O [Compound 1302] ({CH2CO}-NYDWV[Bip]H[NMeA][dL][Dab]LVTCA-NH2; thioether N-14)
0.07 | CC(C)C[C@@H]1NC(=O)[C@H](CCN)NC(=O)[C@@H](CC(C)C)NC(=O)[C@H](C)N(C)C(=O)[C@H](Cc2ccc(O)cc2)NC(=O)[C@H](Cc2ccc(-c3ccccc3)cc2)NC(=O)[C@H](C(C)C)NC(=O)[C@H](Cc2c[nH]c3ccccc23)NC(=O)[C@H](CC(=O)O)NC(=O)[C@H](Cc2ccc(O)cc2)NC(=O)[C@H](CC(N)=O)NC(=O)CSC[C@@H](C(=O)N[C@@H](C)C(N)=O)NC(=O)[C@H]([C@@H](C)O)NC(=O)[C@H](C(C)C)NC1=O [Compound 1303] ({CH2CO}-NYDWV[Bip]Y[NMeA][dL][Dab]LVTCA-NH2; thioether N-14)
0.05 | CC(C)C[C@@H]1NC(=O)[C@H](CCN)NC(=O)[C@@H](CC(C)C)NC(=O)[C@H](C)N(C)C(=O)[C@H](CCCNC(=N)N)NC(=O)[C@H](Cc2ccc(-c3ccccc3)cc2)NC(=O)[C@H](C(C)C)NC(=O)[C@H](Cc2c[nH]c3ccccc23)NC(=O)[C@H](CC(=O)O)NC(=O)[C@H](Cc2ccc(C#N)cc2)NC(=O)[C@H](CC(N)=O)NC(=O)CSC[C@@H](C(=O)N[C@@H](C)C(N)=O)NC(=O)[C@H]([C@@H](C)O)NC(=O)[C@H](C(C)C)NC1=O [Compound 1306] ({CH2CO}-N[Phe(4-CN)]DWV[Bip]R[NMeA][dL][Dab]LVTCA-NH2; thioether N-14)
0.05 | Cc1cccc(C[C@@H]2NC(=O)[C@H](CC(N)=O)NC(=O)CSC[C@@H](C(=O)N[C@@H](C)C(N)=O)NC(=O)[C@H]([C@@H](C)O)NC(=O)[C@H](C(C)C)NC(=O)[C@H](CC(C)C)NC(=O)[C@H](CCN)NC(=O)[C@@H](CC(C)C)NC(=O)[C@H](C)N(C)C(=O)[C@H](CCCNC(N)=O)NC(=O)[C@H](Cc3ccc(-c4ccccc4)cc3)NC(=O)[C@H](C(C)C)NC(=O)[C@H](Cc3c[nH]c4ccccc34)NC(=O)[C@H](CC(=O)O)NC2=O)c1 [Compound 1311] ({CH2CO}-N[Phe(3-Me)]DWV[Bip][Cit][NMeA][dL][Dab]LVTCA-NH2; thioether N-14)
0.05 | CC(C)C[C@@H]1NC(=O)[C@H](CCN)NC(=O)[C@@H](CC(C)C)NC(=O)[C@H](C)N(C)C(=O)[C@H](CCCNC(N)=O)NC(=O)[C@H](Cc2ccc(-c3ccccc3)cc2)NC(=O)[C@H](C(C)C)NC(=O)[C@H](Cc2c[nH]c3ccccc23)NC(=O)[C@H](CC(=O)O)NC(=O)[C@H](Cc2ccc(C#N)cc2)NC(=O)[C@H](CC(N)=O)NC(=O)CSC[C@@H](C(=O)N[C@@H](C)C(N)=O)NC(=O)[C@H]([C@@H](C)O)NC(=O)[C@H](C(C)C)NC1=O [Compound 1312] ({CH2CO}-N[Phe(4-CN)]DWV[Bip][Cit][NMeA][dL][Dab]LVTCA-NH2; thioether N-14)
